From ChEMBL document CHEMBL5725952, “Imidazopyridine macrocycles as inhibitors of human immunodeficiency virus replication” (2018)

Experiment: Inhibition of HIV Replication: A recombinant NL-RLuc proviral clone was constructed in which a section of the nef gene from NL4-3 was replaced with the Renilla Luciferase gene. This virus is fully infectious and can undergo multiple cycles of replication in cell culture. In addition, the luciferous reporter provides a simple and easy method for quantitating the extent of virus growth and consequently, the antiviral activity of test compounds. The plasmid pNLRLuc contains the proviral NL-Rluc DNA cloned into pUC18 at the PvuII site. The NL-RLuc virus was prepared by transfection of 293T cells with the plasmid pNLRLuc. Transfections were performed using the LipofectAMINE PLUS kit from Invitrogen (Carlsbad, Calif.) according to the manufacturer and the virus generated was titered in MT-2 cells. For susceptibility analyses, the titrated virus was used to infect MT-2 cells in the presence of compound, and after 5 days of incubation, cells were processed and quantitated for virus growth by the amount of expressed luciferase. Assay media was RPMI 1640 supplemented with 10% heat inactivated fetal bovine serum (FBS), 100 units/ml penicillin G/100 units/ml streptomycin, 10 mM HEPES buffer pH 7.55 and 2 mM L-glutamine. The results from at least 2 experiments were used to calculate the EC50 values. Luciferase was quantitated using the Dual Luciferase kit from Promega (Madison, Wis.). […]
Type: cell-based
Conditions: HEK-293T

SMILES: Cc1c([C@H](OC(C)(C)C)C(=O)O)c2n3cc(nc3c1C)-c1cccc(c1)-c1cc(F)c(F)cc1O[C@@H](C)COCCOC1(C)CCN2CC1
- EC50: < 100 nM

SMILES: Cc1c([C@@H](OC(C)(C)C)C(=O)O)c2n3cc(nc3c1C)-c1cccc(c1)-c1cc(F)c(F)cc1O[C@@H](C)COCCOC1(C)CCN2CC1
- EC50: 550 nM
